Measured values as given in patent publication US20130123460A1, “PEPTIDE FOR IMPROVING BIOSTABILITY OF BIOACTIVE SUBSTANCE, AND BIOACTIVE SUBSTANCE HAVING IMPROVED BIOSTABILITY” (priority 2010, published 2013).
Like-named read-outs stand apart in the source and are kept apart here. Where no end group is shown, it is not given here.

Key:
[1] = target: T1, endogenous GLP-1 receptor (Mus musculus, UniProt O35659); experiment: Insulin secretion capacity of GLP-1 peptide complex in MIN 6 cells; format: cell-based; conditions: MIN 6 cells, 1000 pM, 15 mM glucose; control = native GLP-1 at 1000 pM;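 also: insulin released into the supernatant of MIN 6 cultures quantified by ELISA, absorbance read at 450 nm with 620 nm reference after substrate addition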
T1 construct: expressing an endogenous GLP-1 receptor; endogenous in cells; host or cells: MIN 6 mouse insulinoma cells (obtained from a person)
T1 sequence (O35659 22-463): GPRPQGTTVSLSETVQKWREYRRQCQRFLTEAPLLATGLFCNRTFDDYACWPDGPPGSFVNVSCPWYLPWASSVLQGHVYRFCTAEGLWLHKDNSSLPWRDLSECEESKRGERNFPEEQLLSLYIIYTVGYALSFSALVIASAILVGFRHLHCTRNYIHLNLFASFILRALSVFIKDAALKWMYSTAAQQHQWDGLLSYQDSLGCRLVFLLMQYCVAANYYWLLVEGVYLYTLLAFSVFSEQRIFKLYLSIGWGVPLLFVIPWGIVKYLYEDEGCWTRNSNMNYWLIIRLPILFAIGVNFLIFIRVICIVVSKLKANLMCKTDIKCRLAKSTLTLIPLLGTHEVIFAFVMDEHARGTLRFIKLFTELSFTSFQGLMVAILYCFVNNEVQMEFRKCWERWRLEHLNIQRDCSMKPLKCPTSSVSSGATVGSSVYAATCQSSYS
Procedure: MIN 6 was seeded on a multi-plate, which was cultivated at 37° C. for 48 hours. After that, the culture was washed twice with a KRH buffer solution including 2 mM glucose solution (including NaCl 119 mM, KCl 4.74 mM, CaCl2 2.54 mM, MgCl2 1.19 mM, KH2PO4 1.19 mM, 10 mM HEPES buffer solution pH7.3, and 0.1% BSA), and then it was incubated at 37° C. for one hour. […] A supernatant thereof was recovered, and an amount of insulin secreted was measured. The measurement of the insulin was performed in an enzyme-linked immunosorbent assay (ELISA), and an absorbance was measured at 450 nm (a sub-wavelength: 620 nm) after the addition of a substrate.
EC50 values thereof were calculated in the same manner as in Part 2, and the influence on the bioactivity caused by the addition of the partial peptide of the GA module were inspected in detail.
The analysis was performed using the following calculation formula.

[2] = Plasma stability of GLP-1 peptide complex (remaining rate in rat plasma, HPLC/MS); format: in vitro ADME, SD rats; conditions: for remaining at 8 h, 0.5 μmol/L / remaining at 48 h, 0.5 μmol/L: SD
Source text: SD rats were anesthetized with diethyl ether, whole blood was collected and a plasma fraction was separated therefrom.

[3] = rat plasma, 0.5 μmol/L, 37° C., 48 hours, relative to 0 hour = 100%, read-out: Remaining rate in plasma after 48 hours (%)

Row | Compound | Insulin secretion capacity (% of control) [1] | remaining at 8 h, 0.5 μmol/L ([2]; rat plasma, 0.5 μmol/L, 37° C., 8 hours, relative to 0 hour = 100%, read-out: Remaining rate in plasma after 8 hours (%)) | remaining at 48 h, 0.5 μmol/L [2, 3] | remaining at 8 h, 0.5 μmol/L ([2]; rat, plasma) | remaining at 48 h, 0.5 μmol/L ([2]; rat, plasma) | Remaining rate in plasma after 8 hours (%) ([2]; rat plasma, 0.5 μmol/L, 37° C., 8 hours, relative to 0 hour = 100%)
1 | CC[C@H](C)[C@H](NC(=O)[C@H](Cc1ccccc1)NC(=O)[C@H](CCC(=O)O)NC(=O)[C@H](CCCCN)NC(=O)[C@H](C)NC(=O)[C@H](C)NC(=O)[C@H](CCC(N)=O)NC(=O)CNC(=O)[C@H](CCC(=O)O)NC(=O)[C@H](CC(C)C)NC(=O)[C@H](Cc1ccc(O)cc1)NC(=O)[C@H](CO)NC(=O)[C@H](CO)NC(=O)[C@@H](NC(=O)[C@H](CC(=O)O)NC(=O)[C@H](CO)NC(=O)[C@@H](NC(=O)[C@H](Cc1ccccc1)NC(=O)[C@@H](NC(=O)CNC(=O)[C@H](CCC(=O)O)NC(=O)[C@H](CO)NC(=O)[C@@H](N)Cc1c[nH]cn1)[C@@H](C)O)[C@@H](C)O)C(C)C)C(=O)N[C@@H](C)C(=O)N[C@@H](Cc1c[nH]c2ccccc12)C(=O)N[C@@H](CC(C)C)C(=O)N[C@H](C(=O)N[C@@H](CCCCN)C(=O)NCC(=O)N[C@@H](CC(C)C)C(=O)N[C@H](C(=O)N[C@@H](CC(=O)O)C(=O)N[C@@H](CCC(=O)O)C(=O)N[C@H](C(=O)N[C@@H](CC(C)C)C(=O)N[C@@H](C)C(=O)N[C@@H](C)C(N)=O)[C@@H](C)CC)[C@@H](C)CC)C(C)C [Example 3, [Ser8]-GLP-1(7-35)-GAm(37-44)-NH2] | 82% | 113% | 95% |  |  | 
2 | HSEGTFTSDVSSYLEGQAAKEFIAWLVKGVEGVKALIDEILAA-NH2 [Example 11, [Ser8]-GLP-1(7-35)-GAm(31-44)-NH2] | 83% |  |  | 99% | 92% | 
3 | HSEGTFTSDVSSYLEGQAAKEFIAWLVKGGVKALIDEILAA-NH2 [Example 9, [Ser8]-GLP-1(7-35)-GAm(33-44)-NH2] | 118% |  |  | 104% | 93% | 
4 | HSEGTFTSDVSSYLEGQAAKEFIAWLVKGKALIDEILAA-NH2 [Example 4, [Ser8]-GLP-1(7-35)-GAm(35-44)-NH2] | 115% |  |  | 77% | 117% | 
5 | HAEGTFTSDVSSYLEGQAAKEFIAWLVKGGPSGVKALIDEILAA-NH2 [Example 24, GLP-1(7-35)-Gly-Pro-Ser-GAm(33-44)-NH2] | 123% |  |  | 90% | 40% | 
6 | CC[C@H](C)[C@H](NC(=O)[C@H](Cc1ccccc1)NC(=O)[C@H](CCC(=O)O)NC(=O)[C@H](CCCCN)NC(=O)[C@H](C)NC(=O)[C@H](C)NC(=O)[C@H](CCC(N)=O)NC(=O)CNC(=O)[C@H](CCC(=O)O)NC(=O)[C@H](CC(C)C)NC(=O)[C@H](Cc1ccc(O)cc1)NC(=O)[C@H](CO)NC(=O)[C@H](CO)NC(=O)[C@@H](NC(=O)[C@H](CC(=O)O)NC(=O)[C@H](CO)NC(=O)[C@@H](NC(=O)[C@H](Cc1ccccc1)NC(=O)[C@@H](NC(=O)CNC(=O)[C@H](CCC(=O)O)NC(=O)[C@H](CO)NC(=O)[C@@H](N)Cc1c[nH]cn1)[C@@H](C)O)[C@@H](C)O)C(C)C)C(=O)N[C@@H](C)C(=O)N[C@@H](Cc1c[nH]c2ccccc12)C(=O)N[C@@H](CC(C)C)C(=O)N[C@H](C(=O)N[C@@H](CCCCN)C(=O)NCC(=O)N[C@@H](CC(C)C)C(=O)N[C@H](C(=O)N[C@@H](CC(=O)O)C(=O)N[C@@H](CCC(=O)O)C(=O)N[C@H](C(=O)N[C@@H](CC(C)C)C(=O)N[C@@H](C)C(=O)N[C@@H](C)C(=O)O)[C@@H](C)CC)[C@@H](C)CC)C(C)C [Example 20, [Ser8]-GLP-1(7-35)-GAm(37-44)] | 98% |  | 79% |  |  | 125%
7 | HSEGTFTSDVSSYLEGQAAKEFIAWLVKGINNAKTVEGVKALIDEILAALP-NH2 [Example 16, [Ser8]-GLP-1(7-35)-GAm(25-46)-NH2] | 104% |  |  | 102% | 93% | 
8 | HAEGTFTSDVSSYLEGQAAKEFIAWLVKGGPVKALIDEILAA-NH2 [Example 22, GLP-1(7-35)-Gly-Pro-GAm(34-44)-NH2] | 99% |  |  | 98% | 94% | 
